In patent US20240139188A1, “Arylamide Compounds For Treatment And Prevention Of Fungal Infections” (priority 2022, published 2024):

Tested on: A. fumigatus
Experiment: Protein kinase inhibitor (PKI) library screen with or without BRI
Conditions: for activity at 20 µM: Aspergillus fumigatus, 48 h, read-out: growth, PKI (20 μM); for growth, PKI (20 μM) + BRI (20 μM): PKI 20 μM together with BRI 20 μM; for growth, PKI (20 μM): PKI 20 μM alone
Description: A protein kinase inhibitors (PKI) library was also screened in combination with BRI. In total, 58 PKI were analyzed. Briefly, 100 μL of liquid MM containing 2.5×10^3 conidia/mL of the A. fumigatus wild-type strain plus 10% alamar blue was inoculated with increasing concentration of PKI (5-80 μM) in the presence (or not) of BRI (20μM) and incubated 48 hours at 37° C. without shaking. […] Plates were incubated for 48 hours at 37° C. without shaking. All experiments containing alamar blue were, after 48 hours incubation, read spectrophotometically by fluorescence and analyzed as previously described. Experiments were repeated at least three times.
To assess the mechanism of action of BRI, a collection of 58 protein kinase inhibitors (PKI, at a concentration of 20 μM; Table 4) was screened for A. fumigatus growth and corresponding metabolic activity alone or together with 20 μM BRI (Table 4).

Molecule | activity at 20 µM | growth, PKI (20 μM) + BRI (20 μM) | growth, PKI (20 μM)
Cn1cnc2c(F)c(Nc3ccc(Br)cc3Cl)c(C(=O)NOCCO)cc21 [selumetinib] | > 80% | ++ (++: growth ≥80% compared to no treatment) | 
Cc1nc(Nc2n[nH]c3c2CN(C(=O)N[C@H](CN(C)C)c2ccccc2)C3(C)C)c2sccc2n1 [PF + 3758309] |  | ++ (++: growth ≥80% compared to no treatment) | ++ (++: growth ≥80% compared to no treatment)
SR + 3677 |  | ++ (++: growth ≥80% compared to no treatment) | ++ (++: growth ≥80% compared to no treatment)
O=C(O)c1ccc2c(c1)nc(Nc1cccc(Cl)c1)c1cnccc12 [CX + 4945] |  | ++ (++: growth ≥80% compared to no treatment) | ++ (++: growth ≥80% compared to no treatment)
Cc1ccc(-c2csc3ncnc(SCCC(=O)O)c23)cc1 [TTP 22] |  | ++ (++: growth ≥80% compared to no treatment) | ++ (++: growth ≥80% compared to no treatment)
COc1cc2c(Nc3cccc(NC(=O)c4ccccc4)c3)ncnc2cc1OCCCN1CCOCC1 [GSK223810A] | > 80% | ++ (++: growth ≥80% compared to no treatment) | 
Cc1cnc(-c2cnc(NCCNc3ccc(C#N)cn3)nc2-c2ccc(Cl)cc2Cl)[nH]1 [CHIR + 99021] |  | ++ (++: growth ≥80% compared to no treatment) | ++ (++: growth ≥80% compared to no treatment)
PF + 670462 |  | ++ (++: growth ≥80% compared to no treatment) | ++ (++: growth ≥80% compared to no treatment)
O=C(NCCCNc1nc(Nc2cccc(NC(=O)N3CCCC3)c2)ncc1I)c1cccs1 [BX + 795] |  | ++ (++: growth ≥80% compared to no treatment) | ++ (++: growth ≥80% compared to no treatment)
Nc1ccc(-c2ccc3ncc4ccc(=O)n(-c5cccc(C(F)(F)F)c5)c4c3c2)cn1 [Torin 2] |  | ++ (++: growth ≥80% compared to no treatment) | ++ (++: growth ≥80% compared to no treatment)
Nc1ncnc2c1c(I)cn2[C@@H]1O[C@H](CO)[C@@H](O)[C@H]1O [5 + iodo tubercidin] |  | ++ (++: growth ≥80% compared to no treatment) | + (+: growth ≤60% compared to no treatment)
Fc1ccc(-c2nn3ccccc3c2-c2ccncc2)cc1 [GW434756X] |  | ++ (++: growth ≥80% compared to no treatment) | ++ (++: growth ≥80% compared to no treatment)
CC(C)COC(=O)c1ccc2c(c1)/C(=C/Nc1ccc(S(N)(=O)=O)cc1)C(=O)N2 [GW416981X] |  | ++ (++: growth ≥80% compared to no treatment) | ++ (++: growth ≥80% compared to no treatment)
CCOc1cc(N2CCC(O)CC2)ccc1Nc1ncc2c(n1)N(C)c1ccccc1C(=O)N2C [XMD8 + 92] |  | ++ (++: growth ≥80% compared to no treatment) | ++ (++: growth ≥80% compared to no treatment)
C[C@@]1(c2ncncc2F)NC(=O)c2cc(-c3cn[nH]c3)ccc21 [LY3177833] |  | ++ (++: growth ≥80% compared to no treatment) | ++ (++: growth ≥80% compared to no treatment)
CCc1nc(-c2cccc(C)c2)c(-c2ccnc(NC(=O)c3ccccc3)c2)s1 [TAK + 715] |  | ++ (++: growth ≥80% compared to no treatment) | ++ (++: growth ≥80% compared to no treatment)
Clc1ccc(C2(c3ccc(-c4cn[nH]c4)cc3)CCNCC2)cc1 [AT7867] |  | ++ (++: growth ≥80% compared to no treatment) | ++ (++: growth ≥80% compared to no treatment)
NS(=O)(=O)c1ccc(N/N=C2\C(=O)Nc3ccc(C(=O)NCCCn4ccnc4)cc32)cc1 [GW290597X] |  | ++ (++: growth ≥80% compared to no treatment) | ++ (++: growth ≥80% compared to no treatment)
COc1ccc2[nH]c3c4[nH]c5ccc(OC)cc5c4c4c(c3c2c1)C(=O)NC4=O [GW296115X] |  | ++ (++: growth ≥80% compared to no treatment) | ++ (++: growth ≥80% compared to no treatment)
N#Cc1ccc2[nH]c(O)c(-c3ccc(CN4CCOCC4)cn3)c2c1 [AZD1080] | > 80% | ++ (++: growth ≥80% compared to no treatment) | 
Cn1cc(C2=C(c3ccc(Cl)cc3Cl)C(=O)NC2=O)c2ccccc21 [SB 216763] | > 80% | ++ (++: growth ≥80% compared to no treatment) | 

Molecule | activity at 20 µM | growth, PKI (20 μM) + BRI (20 μM) | growth, PKI (20 μM)
O=C1Nc2ccc(I)cc2C1=Cc1cc(Br)c(O)c(Br)c1 [GW305074X] |  | ++ (++: growth ≥80% compared to no treatment) | ++ (++: growth ≥80% compared to no treatment)
COc1cc(F)c(F)c(Nc2ccc(I)cc2F)c1NS(=O)(=O)C1(C[C@H](O)CO)CC1 [refametinib] | > 80% | ++ (++: growth ≥80% compared to no treatment) | 
C[S+]([O-])c1ccc(-c2nc(-c3ccc(F)cc3)c(-c3ccncc3)[nH]2)cc1 (stereo not shown) [SB + 203580] |  | ++ (++: growth ≥80% compared to no treatment) | ++ (++: growth ≥80% compared to no treatment)
O=c1ncn2nc(Sc3ccc(F)cc3F)ccc2c1-c1c(Cl)cccc1Cl [VX + 745] |  | ++ (++: growth ≥80% compared to no treatment) | ++ (++: growth ≥80% compared to no treatment)
MK + 8353 |  | ++ (++: growth ≥80% compared to no treatment) | ++ (++: growth ≥80% compared to no treatment)
CNC(=O)c1cc(Oc2ccc(NC(=O)Nc3ccc(Cl)c(C(F)(F)F)c3)cc2)ccn1 [Sorafenib] | > 80% | ++ (++: growth ≥80% compared to no treatment) | 
Cn1cc(C2=C(c3cn(C4CCN(Cc5ccccn5)CC4)c4ccccc34)C(=O)NC2=O)c2ccccc21 [enzastaurin] | > 80% | ++ (++: growth ≥80% compared to no treatment) | 
LY + 2584702 |  | ++ (++: growth ≥80% compared to no treatment) | ++ (++: growth ≥80% compared to no treatment)
O=C(Nc1ccc2[nH]nc(-c3ccncc3)c2c1)[C@@H]1CCN(CC(=O)N2CCN(c3ccc(-c4ncccn4)cc3)CC2)C1 [SCH772984] | > 80% | ++ (++: growth ≥80% compared to no treatment) | 
CC1(N)CCN(c2cccnc2NC(=O)c2nc(-c3ncccc3C(F)(F)F)cnc2N)CC1 [darovasertib] | > 80% | ++ (++: growth ≥80% compared to no treatment) | 
O=C1NCCc2[nH]c(-c3ccncc3)cc21 [PHA + 767491] |  | ++ (++: growth ≥80% compared to no treatment) | ++ (++: growth ≥80% compared to no treatment)
COc1ccc(-c2ccc3c(N4CCOC[C@@H]4C)nc(N4CCOC[C@@H]4C)nc3n2)cc1CO [AZD + 8055] |  | ++ (++: growth ≥80% compared to no treatment) | ++ (++: growth ≥80% compared to no treatment)
CCn1c(=O)c(-c2ccc(-c3cncs3)cc2Cl)cc2cnc(Nc3ccc(N4CCN(C)CC4)cc3)nc21 [FRAX597] |  | ++ (++: growth ≥80% compared to no treatment) | ++ (++: growth ≥80% compared to no treatment)
CCc1cncnc1N1CCN(Cc2nc3ccc(C(F)(F)F)cc3[nH]2)CC1 [PF + 4708671] |  | ++ (++: growth ≥80% compared to no treatment) | ++ (++: growth ≥80% compared to no treatment)
NS(=O)(=O)c1ccc(N/N=C2\C(=O)Nc3ccc(C(=O)NCCc4c[nH]cn4)cc32)cc1 [GW300660X] |  | ++ (++: growth ≥80% compared to no treatment) | ++ (++: growth ≥80% compared to no treatment)
O=c1[nH]c(C2CCCN2)nc2c1oc1ccc(Cl)cc12 (stereo not shown) [XL413] |  | ++ (++: growth ≥80% compared to no treatment) | ++ (++: growth ≥80% compared to no treatment)
NC(=O)c1ccc(-c2nc(-c3ccc4c(c3)OCCO4)c(-c3ccccn3)[nH]2)cc1 [D4476] |  | ++ (++: growth ≥80% compared to no treatment) | ++ (++: growth ≥80% compared to no treatment)
NS(=O)(=O)c1ccc(N/N=C2\C(=O)Nc3ccc(C(=O)NCc4ccncc4)cc32)cc1 [GW300657X] |  | ++ (++: growth ≥80% compared to no treatment) | ++ (++: growth ≥80% compared to no treatment)
CCN1C(=O)CNc2ncc(-c3ccc(-c4nc[nH]n4)nc3C)nc21 [CC + 115] |  | ++ (++: growth ≥80% compared to no treatment) | ++ (++: growth ≥80% compared to no treatment)
O=C1NC(=O)C(c2cnc3ccccn23)=C1c1cn2c3c(cc(F)cc13)CN(C(=O)N1CCCCC1)CC2 [LY2090314] | > 80% | ++ (++: growth ≥80% compared to no treatment) | 
